Reference: patent publication US5519163A, “Inhibitors of phosphoinositide-specific phospholipase C” (Merck & Co., Inc., priority 1993, dated 1996)

molecular target: T1, PLCγ1 (Rattus norvegicus, UniProt P10686); assay: Inhibition of purified recombinant PLCγ1 ([3H]-phosphatidyl inositol hydrolysis); assay type: biochemical; conditions: PLCγ1, 30° C., phosphatidyl inositol substrate; Tables 1 and 2
T1 construct: made in house; host or cells: E. coli BL21 (DE3), plasmid pT5T-PLC4 (ATCC 69421)
T1 sequence (P10686 with tags, fused parts or gaps): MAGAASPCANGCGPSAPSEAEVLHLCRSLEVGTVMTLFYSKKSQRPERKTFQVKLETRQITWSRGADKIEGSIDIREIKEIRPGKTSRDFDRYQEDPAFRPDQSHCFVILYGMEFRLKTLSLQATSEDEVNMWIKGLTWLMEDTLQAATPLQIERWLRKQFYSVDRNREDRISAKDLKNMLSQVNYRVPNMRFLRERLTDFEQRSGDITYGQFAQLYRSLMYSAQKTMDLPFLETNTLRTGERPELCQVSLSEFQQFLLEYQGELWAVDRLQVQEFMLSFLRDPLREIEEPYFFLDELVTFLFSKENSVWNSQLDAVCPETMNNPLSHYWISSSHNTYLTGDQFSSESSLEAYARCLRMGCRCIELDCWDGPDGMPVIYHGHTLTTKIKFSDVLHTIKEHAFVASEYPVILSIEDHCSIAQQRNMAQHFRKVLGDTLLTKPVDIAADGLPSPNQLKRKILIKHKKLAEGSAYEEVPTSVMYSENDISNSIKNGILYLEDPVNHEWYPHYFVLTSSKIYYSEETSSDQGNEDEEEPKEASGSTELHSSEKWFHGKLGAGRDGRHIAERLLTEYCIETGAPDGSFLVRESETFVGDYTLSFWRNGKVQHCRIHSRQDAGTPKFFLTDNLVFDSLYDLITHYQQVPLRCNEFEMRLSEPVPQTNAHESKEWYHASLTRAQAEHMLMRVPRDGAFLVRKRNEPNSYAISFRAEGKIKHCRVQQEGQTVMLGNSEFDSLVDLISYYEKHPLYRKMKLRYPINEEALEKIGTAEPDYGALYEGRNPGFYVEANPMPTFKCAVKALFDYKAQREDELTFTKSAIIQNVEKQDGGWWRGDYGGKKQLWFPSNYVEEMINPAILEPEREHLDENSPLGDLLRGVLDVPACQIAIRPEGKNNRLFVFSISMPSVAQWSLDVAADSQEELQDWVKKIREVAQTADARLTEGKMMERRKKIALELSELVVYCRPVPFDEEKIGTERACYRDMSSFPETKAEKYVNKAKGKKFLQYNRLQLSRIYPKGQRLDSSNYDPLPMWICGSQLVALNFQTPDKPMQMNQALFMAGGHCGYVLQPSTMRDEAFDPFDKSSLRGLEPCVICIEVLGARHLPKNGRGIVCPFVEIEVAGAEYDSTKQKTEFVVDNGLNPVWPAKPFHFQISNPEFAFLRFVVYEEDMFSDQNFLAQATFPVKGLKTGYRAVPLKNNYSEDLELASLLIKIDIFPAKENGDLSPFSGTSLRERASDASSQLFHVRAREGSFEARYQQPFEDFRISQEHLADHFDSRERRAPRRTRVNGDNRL
Source text: Subcloning of the PLCγ Coding Sequence. Rat brain cDNA is synthesized using rat brain poly(A)RNA as template by literature protocol (Sanbrook, J. et al., Molecular Cloning: A Laboratry Manual, Cold Spring Harbor Laboratory Press, Cold Spring Harbor, N.Y.). From the published cDNA sequence of rat brain PLCγ1 (Suh, P.-G., Ryu, S. H., Moon, K. H., Suh, H. W., & Rhee, S. G. (1988) Proc. Natl. Acad. Sci. USA 85, 5419-5423), PCR primers, one which contains a BamHI restriction site upstream of the sequence complementary to the 5' end of the PLCγ1 gene (primer 01), and the other one which contains a HindIII site downsteam of the 3' end of the PLCγ gene (primer 04), were synthesized. Carrying out the PCR using these primers (01 and 04) with the above mentioned rat brain cDNA as template, a DNA fragment with the entire rat brain PLCγ1 coding sequence, flanked by a 5' BamHI site and a 3' HindIII site, is generated. This BamHI-HindIII fragment containing the coding sequence of PLCγ was subcloned into pBSII(S/K)+, generating pPLC1. The rest of the manipulations were accomplished using PCR to generate the appropriate DNA fragment. […]

IC50	SMILES
> 300 µM	O=P(O)(O)C(O)c1ccc(Oc2ccccc2)cc1 (stereo not shown) [reference compound]

tested on: PLCβ; assay: Inhibition of PLCβ purified from bovine brain (assay mixture as in Example 12); assay type: biochemical; conditions: PLCβ from bovine brain substituted for PLCγ; Tables 3 and 4
Protocol: Assay of purified PLCγ1 activitiy. Activity of the purified PLCγ1 was assayed at 30° C. Reactions were never allowed to proceed to more than 10% completion based on the limiting substrate. A typical reaction contained the following: 50 mM HEPES pH7.5, 0.1% Deoxycholate, 3 mM CaCl2, 1 mM EGTA, 0.1 mM DTT with phosphatidyl inositol (1-1000 μM) (PI) and 0.02 uCi [^3 H]-phosphatidyl inositol (PI) as substrate. The phospholipid components were dried under a gentle stream of nitrogen and resuspended in assay buffer. The substrate mix is then vortexed and sonicated (10 sec. with probe sonicator) to disperse the lipid and form micelles. After thermally preequilibrating the assay mixture in the absence of enzyme, the reaction was initiated by adding PLCγ1. Reactions containing 0.2 ml aliquots were terminated by addition of 1/4 volume 1N HCl, 5 mM EGTA and transferred to an ice bath. The quenched reactions are then filtered through a Q sepharose (Pharmacia) column. To prepare the Q sepharose column 1 ml of Q Sepharose slurry is added to a disposable plastic column. The resin is equilibrated by passing through 20 ml of 10 mM NH4 H2 PO4, pH 3.5. The quenched reaction, typically 200 μl, is applied to the column and 3 ml of 10 mM NH4 H2 PO4, pH 3.5 is added, the flow through from this step is collected in a scintillation vial, mixed with 10 ml of scintillation fluid and counted in a Beckman LS3801 scintillation counter.
PLC-β are obtained as described by S. G. Rhee et al., Meth. Enzym., 197:502-511 (1991). Specifically PLC-δ is purified from the cytosolic fraction of bovine brains, while PLC-β is mainly obtained from the particulate fraction. However, since the particulate and cytosolic forms of PLC-β are identical with respect to amino acid sequence, PLC-β-containing fractions pooled during the purification of the cytosolic PLC-δ are combined with the PLC-β fraction from the particulate fraction. A total of 36 bovine brains are used for the purification. Twelve brains are processed at one time.
Step 8: Ion-Exchange Chromatography of PLC-β on DEAE-Cellulose. Because of turbidity, the combined protein solution from Steps 2 and 3 cannot be chromatographed on a DEAE-cellulose column directly. Therefore, two stages of DEAE-cellulose chromatography, a batch procedure followed by a column step, are employed. In the batch step, all of the combined proteins are absorbed on 2 liters of DEAE-cellulose equilibrated with 20 mM Tris-HCl, pH 7.6, containing 5 mM EGTA and 0.1 mM DTT. The DEAE-cellulose slurry is stirred and then collected in a 4-liter sintered glass (coarse) filter funnel. The DEAE-cellulose is washed with the equilibration buffer until it is free of turbid lipid materials and unbound protein. For the column procedure, the washed DEAE-cellulose is removed from the filter funnel, mixed with the equilibration buffer, and poured onto a column already containing a 10 cm high bed of equilibrated DEAE-cellulose (final dimension, 8×45 cm). The column is eluted at a flow rate of 8 ml/min with an 8-liter linear gradient from 0 to 300 mM KCl buffer containing 50 mM Tris-HCl, pH 7.6, 1 mM EGTA, and 0.1 mM DTT. The activity peak is eluted at a KCl concentration of 110 mM. The peak fractions (600 ml) are pooled.
Step 9: Heparin-Agarose Chromatography of PLC-β. The pooled fraction from Step 8 (600 ml) is applied to a heparin-agarose column (5×25 cm) equilibrated with 20 mM HEPES, pH 7.0, 100 mM NaCl, 0.1 mM DTT, and 1 mM EGTA. The column is eluted with a linear gradient from 100 to 500 mM NaCl in 1.5 liters of equilibrium buffer. Peak fractions (310 ml) are pooled and concentrated on an Amicon filter to 27 ml.
Step 10: Reversed-Phase Chromatography of PLC-β on TSK Phenyl-5-PW. Solid KCl is added to the concentrated fractions from Step 9 to give a concentration of 3M, and the mixtures are centrifuged to remove denatured proteins. […]

IC50	SMILES
7 µM	O=P(O)(O)C(O)c1cccc(Oc2ccc(O)cc2)c1 (stereo not shown) [Example 8, 1-Hydroxy-1-(3-(4-hydroxyphenoxy)phenyl)methylphosphonic acid]
> 300 µM	O=P(O)(O)C(O)c1cccc(Oc2ccccc2)c1 (stereo not shown) [Example 2, 1-Hydroxy-1-(3-phenoxyphenyl)methylphosphonic acid]
38 µM	O=P(O)(O)C(O)c1cccc(Oc2ccccc2Cl)c1 (stereo not shown) [Example 5, 1-Hydroxy-1-(3-(2-chlorophenoxy)phenyl)methylphosphonic acid]
717 µM	COc1ccc(Oc2cccc(C(O)P(=O)(O)O)c2)cc1 (stereo not shown) [Example 6, 1-Hydroxy-1-(3-(4-methoxyphenoxy)phenyl)methylphosphonic acid]
74 µM	CCc1cccc(Oc2ccc(C(O)P(=O)(O)O)cc2)c1 (stereo not shown) [Example 10, 1-Hydroxy-1-(4-(3-ethylphenoxy)phenyl)methylphosphonic acid]
11 µM	COc1cccc(Oc2ccc(C(O)P(=O)(O)O)cc2)c1 (stereo not shown) [Example 11, 1-Hydroxy-1-(4-(3-methoxyphenoxy)phenyl)methylphosphonic acid]
110 µM	O=P(O)(O)C(O)c1cccc(Oc2ccc(Cl)c(Cl)c2)c1 (stereo not shown) [Example 3, 1-Hydroxy-1-(3-(3,4-dichlorophenoxy)phenyl)methylphosphonic acid]
9 µM	O=P(O)(O)C(O)c1ccc(Oc2cccc(Cl)c2)cc1 (stereo not shown) [Example 9, 1-Hydroxy-1-(4-(3-chlorophenoxy)phenyl)methylphosphonic acid]
65 µM	O=P(O)(O)C(O)c1cccc(Oc2ccc(Cl)cc2)c1 (stereo not shown) [Example 4, 1-Hydroxy-1-(3-(4-chlorophenoxy)phenyl)methylphosphonic acid]
31 µM	Cc1ccc(Oc2cccc(C(O)P(=O)(O)O)c2)cc1 (stereo not shown) [Example 7, 1-Hydroxy-1-(3-(4-methylphenoxy)phenyl)methylphosphonic acid]
24 µM	O=P(O)(O)C(O)c1cccc(Oc2cccc(Cl)c2)c1 (stereo not shown) [Example 1, 1-Hydroxy-1-(3-(3-chlorophenoxy)phenyl)methylphosphonic acid]
> 300 µM	O=P(O)(O)C(O)c1ccc(Oc2ccccc2)cc1 (stereo not shown) [reference compound]
